Source: patent publication US20240327415A1, “Multicomponent Complexes, Including Salts, Crystalline Forms, and Hydrates and Solvates of ENT1 Inhibitors” (iTeos Belgium SA, priority 2023, published 2024)

Assays:
Type in all cases: physicochemical
[1] = salt screen, XRPD of damp, dried and 40° C./75% RH stored samples (Salt Preparation Methods 1 and 2); settings: L-Malic acid, 1 equiv., AS Heptane
How it was run: (§1)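 Free base (~25 mg) was stirred at 40 °C with 1.0 or 2.0 equiv. acid in the test solvent, then temperature-cycled 40–5 °C (0.1 °C/min, 1 h holds) with anti-solvent addition as needed. Solids were isolated at 5 °C and run by XRPD damp, after vacuum drying at ~40 °C for ~17–91 h, and after 24–48 h at 40 °C/75% RH.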

[2] = as above; set-up: key: A = amorphous; * = predominantly; 1 = Form 1 Compound 1 L-malate; 2 = Form 2 Compound 1 L-malate; settings: L-Malic acid, 1 equiv.; MEK; AS Heptane
Experimental: Salt Preparation Method 1: Approximately 25 mg of Compound 1 (free base) was weighed out into 1.5 mL screw-cap vials and a stirrer bar was added. For solid counterions, the appropriate amount of acid (1.0 or 2.0 equiv.) was weighed into separate 1.5 mL screw-cap vials. 100 μL of the appropriate solvent system was added to both the Compound 1 and the solid counterions. Stock solutions of liquid counterions were prepared, such that 100 μL contained 1.0 or 2.0 equiv. of acid. See counterion and solvent lists in Table 60 and Table 61 respectively.
The samples were stirred at 40° C. for 5-10 min and then the acid solutions were added to Compound 1, rinsing out the transfer vial with a further 50 μL of solvent. […] Experiments were temperature cycled between 40° C. and 5° C. […]
Temperature cycling was then continued for ca. 16-69 h, followed by further ASA and temperature cycling if required. Material was isolated at 5° C. and analyzed damp by XRPD. All isolated material was dried under vacuum at ca. 40° C. for ca. 17-91 h then re-analyzed by XRPD. The XRPD plate was stored at 40° C./75% RH for 24-48 h and then samples re-analyzed. […] Any residual solids were analyzed by XRPD. […]
The experiments were stirred at 40° C. for ca. 1 h, and then temperature cycled between 40° C. and 5° C. with 0.1° C./min ramp and 1 h hold between each step. […] The damp and dried solids were subsampled and analyzed by XRPD. […]

[3] = as above; set-up: key: A = amorphous; Evap. = isolated via evaporation; settings: L-Malic acid, 1 equiv.
How it was run: as §1

[4] = seven-day solid stability studies (ambient; 40° C./75% RH; 80° C.), XRPD and HPLC; set-up: key: Crystalline Form 2 di(hydrogen sulfate) trihydrate; Crystalline Form 3 di(hydrogen sulfate); M4: Crystalline Form 4 mono(hydrogen sulfate); Crystalline Form 6 di(hydrogen sulfate); 3 + 9: Mixture of Crystalline Form 3 di(hydrogen sulfate) and Crystalline Form 9 di(hydrogen sulfate); settings: 7 days, 80° C. (closed vial)
Experimental: (§2) In the experiment, one set of vials was exposed to ambient light, temperature and humidity conditions. Another was exposed openly to 40° C. and 75% RH conditions and a third was sealed and exposed to 80° C. conditions. After 7 days, XRPD and HPLC measurements were collected.
(§3) Example 12-Stability Studies of Amorphous Compound 1 (free base) and Crystalline Form 1 Compound 1 (free base): Seven-day stability studies were carried out comparing amorphous Compound 1 (free base) and crystalline Form 1 Compound 1 (free base) at 40° C./75% RH, under ambient conditions and at 80° C. After storage at 40° C./75% RH and 80° C., the amorphous material formed glassy solids which were pale yellow (40° C./75% RH) or orange (80° C.). It is likely that the material melted and re-solidified at 80° C. and deliquesced at 40° C./75% RH. […] (decrease in purity of ca. 11% area).
(§4) Example 15-Stabilities Studies-Crystalline Form 3 Compound 1 di(hydrogen sulfate) and Crystalline Form 4 Compound 1 mono(hydrogen sulfate): Seven-day stability studies were carried out on the prepared crystalline Form 3 Compound 1 di(hydrogen sulfate) and crystalline Form 4 Compound 1 mono(hydrogen sulfate) using the following conditions: (1) Ambient light, temperature and humidity conditions (open vial); (2) 40° C./75% RH (open vial); and (3) 80° C. (closed vial). […]

[5] = as above; set-up: key: Crystalline Form 3 di(hydrogen sulfate); Crystalline Form 9 di(hydrogen sulfate); Melt/Amorphous; settings: 7 days, sealed
Experimental: as §2, §3, §4

[6] = as above
Experimental: as §2, §3
Example 15-Stabilities Studies-Crystalline Form 3 Compound 1 di(hydrogen sulfate) and Crystalline Form 4 Compound 1 mono(hydrogen sulfate): Seven-day stability studies were carried out on the prepared crystalline Form 3 Compound 1 di(hydrogen sulfate) and crystalline Form 4 Compound 1 mono(hydrogen sulfate) using the following conditions: (1) Ambient light, temperature and humidity conditions (open vial); (2) 40° C./75% RH (open vial); and (3) 80° C. (closed vial). After 7 days of storage under the specified conditions, XRPD and HPLC analyses were carried out on the residual solid materials, and the results are summarized in Table 51.
Example 18-Seven Day Stability Study on Crystalline Form 2 Compound 1 di(hydrogen sulfate) trihydrate: A 7-day stability study was conducted on crystalline Form 2 Compound 1 di(hydrogen sulfate) trihydrate using the following conditions: (1) ambient light, temperature, and humidity conditions (open vial); (2) 40° C., 75% RH (open vial); and (3) 80° C. (closed vial). After 7 days of storage under the specified, XRPD and HPLC analyses were carried out on the residual solid materials.

[7] = hydration mapping studies (slurries at different water activities, Example 17); settings: aw 0.1, dried 40° C. reduced pressure 24 hr
Experimental: Example 17—Hydration Mapping Studies-Crystalline Form 2 Compound 1 di(hydrogen sulfate) trihydrate, Crystalline Form 3 Compound 1 di(hydrogen sulfate), and Blend: The effects of different water activities on crystalline Form 2 Compound 1 di(hydrogen sulfate) trihydrate, crystalline Form 3 Compound 1 di(hydrogen sulfate) and a blend of the two were investigated. The “blend” was prepared by mixing crystalline Form 2 Compound 1 di(hydrogen sulfate) trihydrate and crystalline Form 3 Compound 1 di(hydrogen sulfate) in a 1:1 ratio. To the vials containing the required solid material, the appropriate solvent system was added to form slurries. The slurry samples were stirred at the required temperatures during and after the solvent addition. Where dissolution was observed post-solvent addition, additional solid was added to re-saturate the sample. After stirring at the required temperature for 48 hours, the residual solids left in the vials were analyzed by XRPD to assess the solid forms. The analyzed samples were then dried on the XRPD plate under reduced pressure at 40° C. for 24 hr. The dried samples were analyzed by XRPD.

## O=C(O)CC(O)C(=O)O [L-Malic acid, 1 equiv.]
[1]; Ethanol
  XRPD Analysis Damp: * A
  XRPD Analysis Dry: * A
[1]; MEK
  XRPD Analysis Damp: 1 + 2
  XRPD Analysis Dry: 1 + 2
[2]
  XRPD Analysis 40° C. 75% RH: 1
[3]; Acetonitrile, AS tBME
  XRPD Analysis 40° C. 75% RH: A
  XRPD Analysis Damp: A
  XRPD Analysis Dry: A
[3]; Ethanol, AS Heptane
  XRPD Analysis 40° C. 75% RH: A
[3]; Ethyl acetate, AS Heptane
  XRPD Analysis 40° C. 75% RH: A
  XRPD Analysis Damp: A
  XRPD Analysis Dry: A
[3]; IPA:H2O (75:25% v/v), AS tBME
  XRPD Analysis 40° C. 75% RH: A
  XRPD Analysis Damp: A
  XRPD Analysis Dry: A
[3]; THE, AS Heptane
  XRPD Analysis 40° C. 75% RH: A
  XRPD Analysis Damp: A
  XRPD Analysis Dry: A

## COc1cc(C(=O)O[C@@H]2CCCOc3cc(cc(OC)c3OC)C(=O)NCCCN3CCCN(CC2)CC3)cc(OC)c1OC.O=S(=O)(O)O.O=S(=O)(O)O [Form 3 di(hydrogen sulfate)]
[4]
  XRPD: 3 + 9
[5]
  XRPD: 9
[6]; 7 days, 40° C./75% RH (open vial)
  HPLC: 99.82 % area
[6]; 7 days, 40° C./75% RH, open vial
  HPLC: 99.82 % area
[6]; 7 days, 80° C. (closed vial)
  HPLC: 99.80 % area
[6]; 7 days, 80° C., sealed
  HPLC: 99.80 % area
[6]; 7 days, Ambient (open vial)
  HPLC: 99.84 % area
[6]; 7 days, Ambient, open vial
  HPLC: 99.84 % area
[6]; Input sample
  HPLC: 99.83 % area
[7]; 20° C., 2-Propanol:Water
  XRPD, hydration studies - dried samples: 3, PC
[7]; 20° C., Acetonitrile:Water
  XRPD, hydration studies - dried samples: 3, PC
[7]; 50° C., 2-Propanol:Water
  XRPD, hydration studies - dried samples: 1, PC
[7]; 50° C., Acetonitrile:Water
  XRPD, hydration studies - dried samples: 3, PC
